From patent publication US20060025485A1, “Hydroxybenazamide compounds for treatment of cancer” (priority 2004, published 2006)
Entries after “also recorded” stand apart in the source; their conditions may differ. Where two headings read alike, the source gives them in different places.

Experiments:
hASH1 = assay: Western analysis of hASH1, H727 cells; type: cell-based, human
Protocol: (§1) ZM 336372 treatment. H727 and BON cells were plated at 50-60% confluence in 100 mm cell culture dishes and incubated overnight.
(§2) Western blot analysis. Cellular extracts were prepared and quantified by BCA protein assay kit (Pierce, Rockford, Ill.) as previously described (Sippel et al., 2003). 30-50 μg of denatured proteins from each sample underwent electrophoresis on a SDS-polyacrylamide gel and transferred to a nitrocellulose membranes (Schleicher and Schuell, Keene, N.H.). Membranes were blocked for 1 hr in milk solution (1×PBS, 5% non-fat dry milk, 0.05% Tween-20) and then incubated at 4° C. overnight with primary antibodies. The following primary antibody dilutions were used: phospho-ERK 1/2 (1:1,000); phospho-MEK (1:1,000); phospho-Raf-1 (Serine338) (1:1,000); p21 and p18, (1:1,000); (Cell Signal Technology, Beverly, Mass.), Chromogranin A (1:2,000; Zymed Laboratories, San Francisco, Calif.); MASH-1 (1:1000, BD Pharmingen) and G3PDH (1:10,000; Trevigen, Gaithersburg, Md.). After primary antibody incubation, membranes were washed 3×5 min in PBS-T wash buffer (1×PBS, 0.05% Tween 20). Then the membranes were incubated with either 1:2,000 dilution of goat anti-rabbit or goat anti-mouse secondary antibody (Cell Signal Technology, Beverly, Mass.) depending on the source of the primary antibody for 1 hr at room temperature. […]

raf-1 = conditions: cited from earlier work
pMEK and p-MAPK = assay: Western blot of pMEK and p-MAPK, HT-29 cells; type: cell-based
Description: (§3) The results were assay using standard MTT, Western blot and cytoxocity assays.

p-MAPK = assay: Western blot of p-MAPK, Panc-1 cells; type: cell-based; conditions: all concentrations tested
Description: as §3

[1] = tested on: TT medullary thyroid cancer cells; assay: MTT assay, TT cells; type: cell-based; conditions: 100 μM, versus DMSO
Chromogranin A = assay: Western analysis of CgA, BON cells; type: cell-based, human; conditions: 20 to 100 μM, 2 days
Protocol: as §1, §2

[2] = Drug toxicity assay, propidium iodide exclusion, BON cells; type: cell-based; conditions: human, 63 to 500 μM, read-out: viable cells by PI exclusion
Protocol: Drug Toxicity Assay. Briefly, cells were trypsinized and plated in a 6-well plate at 1-2×10^6 in triplicate and allowed to adhere overnight. […] As a control, DMSO was added. After incubation, the media was removed and cells were trypsinized and added to removed media. Cells were incubated on ice and 2.5 μg/ml Propidium Iodide (Sigma, St. Louis, Mo.) was added five minutes before flow cytometry (Ballestrero et al., 2004). Data was acquired using a FACSCalibur benchtop flow cytometer (Becton Dickenson, San Jose, Calif.) using CellQuest acquisition and analysis software.

[3] = tested on: H727 pulmonary carcinoid cells; assay: MTT cell proliferation assay, H727 cells; type: cell-based, human; conditions: 100 μM, to day 16, versus DMSO
Protocol: MTT Cell Proliferation Assay. […] Cells were trypsinized and plated in triplicate to 24 wells plates and allowed to adhere overnight. […] Cells were incubated and maintained with change of treatments at 2 days. Cell growth rates were analyzed after the addition of MTT reagent to the cultured cells following manufacturer's instructions. Absorbance was determined using spectrophotometer at a wave length of 540 nm.

HepG2 = HepG2 MTT Assay; type: cell-based; conditions: HepG2, three concentrations
Protocol: FIG. 18—HepG2 MTT Assay. The MTT assay is a laboratory test for measuring cellular proliferation (cell growth). MTT is added to a cell culture and is modified into a dye by enzymes associated with metabolic activity in a live cell. MTT is short for 3-(4,5-dimethylthiazol-2-yl)-2,5-diphenyltetrazolium bromide.
as §3

MiaPaCa-2 = MiaPaCa-2 MTT Assay; type: cell-based; conditions: MiaPaCa-2, three concentrations
HT-29 = HT-29 MTT Assay; type: cell-based; conditions: HT-29, varying concentrations
p21 = assay: Western analysis of cell cycle inhibitor p21, H727 cells; type: cell-based, human; conditions: 20 μM and 100 μM, 2 days
Protocol: as §1, §2

Cc1ccc(NC(=O)c2cccc(N(C)C)c2)cc1NC(=O)c1ccc(O)cc1 [ZM336372, N-[5-(dimethyl-aminobensamido)-2-methylphenyl]-4-hydroxybenzamide]
hASH1 level (hASH1; 20 μM and 100 μM, 2 days): reduction in both CgA and hASH1; also recorded: dose dependent decrease | time of first recognized reduction of hASH1 (hASH1; 100 μM, 10 minutes to 48 hours): 1 h | IC50 (cytotoxicity) (H727 cells): did not produce enough cellular cytotoxicity to estimate an IC50 | activation of raf-1 (raf-1; COS1 cells): > 100 fold | activation of raf-1 (raf-1; NIH3T3 cells): > 100 fold | activation of raf-1 (raf-1; PC12 cells): > 100 fold | raf-1 activation compared with EGF stimulation (raf-1; Swiss 3T3 cells): much higher than that attained after stimulation with epidermal growth factor (EGF) | time for which induction of raf-1 was sustained (raf-1; Swiss 3T3 cells): at least 3 hours | time of exposure after which induction of raf-1 occurred (raf-1; Swiss 3T3 cells): 60 min | activation of raf-1 (raf-1; human 293 cells): > 100 fold | p-MAPK level (pMEK and p-MAPK): increase in the levels of both pMEK and p-MAPK | pMEK level (pMEK and p-MAPK): increase in the levels of both pMEK and p-MAPK | p-MAPK level (p-MAPK): increase in p-MAPK following treatment at all concentrations tested | growth of TT cells (MTT) [1]: clear suppression of growth | CgA (chromogranin) level (Chromogranin A): decreased secretion of chromogranin; also recorded: reduction in both CgA and hASH1; also recorded: decreasing expression of chromogranin at higher concentrations; also recorded: dose dependent decrease | viability at 2 days [2]: ~70% | H727 cell proliferation (MTT) [3]: clear suppression of growth; also recorded: growth suppressed; also recorded: inhibited | cellular proliferation (MTT) (HepG2): effects at low concentrations; also recorded: reduction in cellular proliferation | cellular proliferation (MTT) (MiaPaCa-2): inhibition at the highest concentration; also recorded: reduction of cellular proliferation | cellular proliferation (MTT) (HT-29): effects at low concentrations; also recorded: effective at decreasing cellular proliferation | IC50 (cytotoxicity) (BON cells): did not produce enough cellular cytotoxicity to estimate an IC50 | p21 expression (p21): induced; also recorded: significant induction
